The source of these data is the ASAP Discovery antiviral challenge data (2025).

SMILES strings stand for the structures. Converted amounts (≈) assume the structure as drawn. “And” between values parts separate entries of the source, which are not always exact repeats. Equal entries are not always repeated.

Conditions in one data set: not given
As usually defined, the solubility (kinetic) is solubility judged after dilution from a stock solution rather than from solid. In turn, `CNC(=O)Cn1cc(-c2cc3c(N[C@H](c4ccc5c(c4)OCCO5)C(C)C)ncnc3[nH]2)cn1` (racemic) displayed a solubility (kinetic) of 289 µM (≈ 133 µg/mL). Compound `C[C@H](C(=O)O)[C@@H](NC(=O)c1ncnc2[nH]ccc12)c1ccc(Br)cc1` (single isomer, unassigned) registered a solubility (kinetic) of 358 µM (≈ 144 µg/mL). Turning to `CC(C)[C@@H](Nc1ncnc2[nH]c(-c3cnn(C)c3C#N)cc12)c1ccc2c(c1)OCCO2`, the solubility (kinetic) worked out at 20 µM (≈ 8.59 µg/mL).

`COc1ccc([C@H](Cc2nnn[nH]2)NC(=O)c2ncnc3[nH]ccc23)cc1` (single isomer, unassigned) had a solubility (kinetic) of 367 µM (≈ 134 µg/mL). The same measure, in the same setting: the figure for `CNC(=O)Cn1cc(-c2cc3c(N[C@H](c4ccc5c(c4)S(=O)(=O)CCC5)C(C)C)ncnc3[nH]2)cn1` (single isomer, unassigned) is 323 µM and 294 µM; for `COc1ccc2c(c1)CCN(c1ncnc3[nH]ccc13)[C@H]2C(C)C` (racemic) it is 14 µM (≈ 4.51 µg/mL); for `CC(C)[C@H](Nc1ncnc2[nH]c(-c3cnn(C)c3C#N)cc12)c1ccc2c(c1)OCCO2` it is 15 µM (≈ 6.44 µg/mL).

Consider `CC(C)[C@H](Nc1ncnc2[nH]c(-c3cnn(CC(=O)N(C)C)c3)cc12)c1ccc2c(c1)OCCO2` (racemic), for which the kinetic solubility stood at 210 µM (≈ 99.9 µg/mL).

`O=C(Nc1ccccc1)Nc1ccc(C(=O)NC2c3cccc(O)c3CC2C(=O)O)cc1` (stereo not given) displayed a kinetic solubility of 319 µM (≈ 138 µg/mL). On the same count and under the same terms, the result for `CC(C)[C@H](Nc1ncnc2[nH]ccc12)c1ccc2c(c1)S(=O)(=O)CCC2` (racemic) reads 385 µM (≈ 143 µg/mL); that for `CC(C)(C)[C@H](Nc1ncnc2[nH]c(-c3cnn(CC(N)=O)c3)cc12)c1ccc2c(n1)OCCO2` (single isomer, unassigned), 372 µM and 390 µM; that for `CC(C)[C@H](Nc1ncnc2[nH]c(-c3cnn(CC(N)=O)c3)cc12)c1ccc2c(c1)NC(=O)CO2` (racemic), 25 µM (≈ 11.5 µg/mL). The same measure, in the same setting: the result for `CC(C)[C@H](Nc1ncnc2[nH]c(-c3cnn(C)c3C#N)cc12)c1ccc2c(n1)NC(=O)CO2` (racemic) reads 29 µM (≈ 12.9 µg/mL); that for `CC(C)[C@H](Nc1ncnc2[nH]ccc12)c1ccc2c(c1)S(=O)(=O)CCO2` (racemic), 372 µM (≈ 139 µg/mL).

For the compound `CCNC(=O)c1cc2c(N[C@H](c3ccc4c(c3)S(=O)(=O)NCC4)C(C)C)ncnc2[nH]1` (racemic), the kinetic solubility turned out to be 344 µM (≈ 152 µg/mL). For `CNC(=O)c1c[nH]c2ncnc(N[C@H](c3ccc4c(c3)NC(=O)CO4)C(C)C)c12` (racemic), the solubility (kinetic) was determined as 28 µM (≈ 11 µg/mL). Same read-out and setting: the figure for `CNCc1cc(-c2cc3c(N[C@H](c4ccc5c(c4)S(=O)(=O)CCC5)C(C)C)ncnc3[nH]2)co1` (racemic) is 321 µM (≈ 154 µg/mL); for `O=C(O)c1cc(Cl)ccc1NS(=O)(=O)c1ccc(Oc2ccccc2Cl)cc1` it is 369 µM (≈ 162 µg/mL); for `NCc1cccc(CNC(=O)[C@H](NC(=O)OCc2ccccc2)c2ccc(OCc3ccccc3)cc2)c1` (racemic) it is 78 µM (≈ 39.7 µg/mL). In the case of `CNC(=O)c1cc2c(N[C@H](c3ccc4c(c3)NC(=O)CO4)C(C)C)ncnc2[nH]1` (single isomer, unassigned), the kinetic solubility was determined as 380 µM (≈ 150 µg/mL). Consider `CC(C)[C@H](Nc1ncnc2[nH]c(-c3cnn(C)c3C#N)cc12)c1ccc2c(n1)NC(=O)CO2` (single isomer, unassigned), for which the solubility (kinetic) was determined as 28 µM (≈ 12.4 µg/mL). Compound `CC(C)[C@H](Nc1ncnc2[nH]c(-c3cnn(C)c3C#N)cc12)c1ccc2c(n1)OCCO2` (racemic) displayed a solubility (kinetic) of 89 µM (≈ 38.3 µg/mL).

For `O=C(Nc1cc(Br)c2c(c1)CNC2)c1cc(F)cc2[nH]ncc12`, the kinetic solubility was determined as 4 µM (≈ 1.5 µg/mL).

With `CC(C)[C@H](Nc1ncnc2[nH]c(-c3cnn(CCC(N)=O)c3)cc12)c1ccc2c(c1)OCCO2` (racemic), the kinetic solubility came to 236 µM (≈ 109 µg/mL). The same measure, in the same setting: the figure for `CC(C)[C@H](Nc1ncnc2[nH]c(-c3cnn(CC(N)=O)c3)cc12)c1ccc2c(n1)OCCO2` (racemic) is 385 µM (≈ 173 µg/mL); for `Cc1cc(CCCOc2c(C)cc(-c3noc(C(F)(F)F)n3)cc2C)on1` it is 18 µM (≈ 6.86 µg/mL). On the same count and under the same terms, the result for `CC(C)[C@H](Nc1ncnc2[nH]c(-c3cnn(C)c3)cc12)c1ccc2c(c1)S(=O)(=O)NCC2` (racemic) reads 105 µM (≈ 47.4 µg/mL); that for `COc1cc(Cc2c(-c3ccc(F)cc3)noc2C)nc(N2CCNCC2)n1`, 325 µM (≈ 125 µg/mL); that for `CNC(=O)Cn1cc(-c2cc3c(N[C@H](c4ccc5c(c4)S(=O)(=O)CCC5)C(C)C)ncnc3[nH]2)cn1` (racemic), 306 µM (≈ 155 µg/mL). Still for that read-out and setting: the figure for `CC(C)[C@H](Nc1ncnc2[nH]cc(C(N)=O)c12)c1ccc2c(c1)OCCO2` (racemic) is 375 µM (≈ 138 µg/mL). In turn, `COc1ccc(C(=O)Nc2cccc(/C=C3/C(=O)NC(=O)c4ccccc43)c2)cc1` registered a kinetic solubility of 23 µM (≈ 9.16 µg/mL). For `Cc1nn(C)cc1-c1cc2c(N[C@H](c3ccc4c(c3)S(=O)(=O)CCC4)C(C)C)ncnc2[nH]1` (single isomer, unassigned), the solubility (kinetic) is 65 µM and 63 µM.

For another data set the following is noted: human; liver_microsomes.
A word on the microsomal CLint: it is a measure of how fast metabolising enzymes remove a compound, apart from limits set by blood flow. With `CNC(=O)Cn1cc(-c2cc3c(N[C@H](c4ccc5c(c4)OCCO5)C(C)C)ncnc3[nH]2)cn1` (racemic), the microsomal CLint amounted to 119 µL/min/mg. Compound `C[C@H](C(=O)O)[C@@H](NC(=O)c1ncnc2[nH]ccc12)c1ccc(Br)cc1` (single isomer, unassigned) yielded a microsomal CLint of 3 µL/min/mg.

As to `CC(C)[C@@H](Nc1ncnc2[nH]c(-c3cnn(C)c3C#N)cc12)c1ccc2c(c1)OCCO2`, the microsomal CLint is 47 µL/min/mg. Same read-out and setting: the result for `COc1ccc([C@H](Cc2nnn[nH]2)NC(=O)c2ncnc3[nH]ccc23)cc1` (single isomer, unassigned) reads 2 µL/min/mg. The same measure, in the same setting: the figure for `CNC(=O)Cn1cc(-c2cc3c(N[C@H](c4ccc5c(c4)S(=O)(=O)CCC5)C(C)C)ncnc3[nH]2)cn1` (single isomer, unassigned) is 92 µL/min/mg and 237 µL/min/mg.

Turning to `COc1ccc2c(c1)CCN(c1ncnc3[nH]ccc13)[C@H]2C(C)C` (racemic), the microsomal CLint is 60 µL/min/mg. Same read-out and setting: the figure for `CC(C)[C@H](Nc1ncnc2[nH]c(-c3cnn(C)c3C#N)cc12)c1ccc2c(c1)OCCO2` is 706 µL/min/mg; for `CC(C)[C@H](Nc1ncnc2[nH]c(-c3cnn(CC(=O)N(C)C)c3)cc12)c1ccc2c(c1)OCCO2` (racemic) it is 142 µL/min/mg.
